Experiment [1] concerns shRNA-transduced U87, U251 and T98G cells. Nature of the experiment: Agarose colony formation assay, TG2 shRNA-transduced cells. The experiment is classed as cell-based, human. The settings on record: 10 μM, 2 weeks. On the procedure:
Lentiviral vectors. Lentiviral knockdown vectors were prepared and used as previously described (Gundemir, S. et al., PLoS ONE 4(7):e6123, 2009; Barde, I. et al., Curr. Protoc. Neurosci. Chapter 4, Unit 4.21, 1-23, 2010).
Agarose colony formation assay. Agarose colony formation assay was conducted as described (Horman, S. R. et al., J. Biomol. Screen 18(10):1298-308, 2013; Zhang, K. et al., Tumour Biol. 35(3):2537-48, 2014) using 6-well plates and 5,000 cells in each well. 10 μM NC9 or DMSO was added to every layer at the start of the experiments. 2 mL liquid MEM containing 10 μM NC9 or DMSO was used to cover the agarose and it was changed 3 times a week. Colony growth was monitored every day and at the end of 10-15 days, the colonies were fixed with 4% paraformaldehyde, stained with 0.005% crystal violet, washed with PBS twice and 40 random pictures were taken from each treatment group. A person blinded for the treatments measured the area of the colonies using ImageJ program and the volumes were calculated from the area data under the assumption that the colonies are perfect spheres. The volumes were used to compare the effect of NC9 on colony growth.

Experiment [2] relates to A431 cells. Put plainly: EMT marker immunoblot, A431 cells. The experiment is classed as cell-based, human. The following applies: 20 μM, 48 h. As to the method:
In (A), it is shown that A431-derived ECS cells have elevated TG2 and mesenchymal markers. A431 cells (40,000 cells/well) were grown in spheroid media in monolayer conditions or as non-attached spheroids (ECS cells) for 10 d. Cells were harvested and lysates prepared for immunoblot. In (B), A431 cells were electroporated with 3 μg of control- or TG2-siRNA and at 72 h extracts were prepared to assay TG2 and EMT marker level. In (C), A431-derived ECS cells were electroporated with 3 μg of the indicated siRNA and then grown as spheroids for 96 h. […] In (D), A431 cells (500,000 cells/well) were plated in monolayer culture in spheroid media in 100 mm dishes. The following day, at time zero, 0 or 20 μM NC9 was added with fresh addition of medium and NC9 at 24 h. At 48 h the cells were harvested and extracts prepared for immunoblot. In (E), A431 cells were pretreated in 0 or 20 μM NC9 for 2 h and then harvested and 25,000 cells were seeded in the upper chamber above a matrigel-coated membrane in 1 mL of growth medium containing 1% FCS in a Millicell chamber. The lower chamber was filled with growth medium containing 10% FCS. […] Confluent monolayers were then scratched with a 10-μL pipette tip, rinsed, and width of the wound was monitored for 0-14 h. […]
(In general: Immunoblotting shows a protein as a band on a membrane.)

The target of experiment [3] is T1, TG2 (Homo sapiens, UniProt P21980).
T1 sequence (P21980 1-687): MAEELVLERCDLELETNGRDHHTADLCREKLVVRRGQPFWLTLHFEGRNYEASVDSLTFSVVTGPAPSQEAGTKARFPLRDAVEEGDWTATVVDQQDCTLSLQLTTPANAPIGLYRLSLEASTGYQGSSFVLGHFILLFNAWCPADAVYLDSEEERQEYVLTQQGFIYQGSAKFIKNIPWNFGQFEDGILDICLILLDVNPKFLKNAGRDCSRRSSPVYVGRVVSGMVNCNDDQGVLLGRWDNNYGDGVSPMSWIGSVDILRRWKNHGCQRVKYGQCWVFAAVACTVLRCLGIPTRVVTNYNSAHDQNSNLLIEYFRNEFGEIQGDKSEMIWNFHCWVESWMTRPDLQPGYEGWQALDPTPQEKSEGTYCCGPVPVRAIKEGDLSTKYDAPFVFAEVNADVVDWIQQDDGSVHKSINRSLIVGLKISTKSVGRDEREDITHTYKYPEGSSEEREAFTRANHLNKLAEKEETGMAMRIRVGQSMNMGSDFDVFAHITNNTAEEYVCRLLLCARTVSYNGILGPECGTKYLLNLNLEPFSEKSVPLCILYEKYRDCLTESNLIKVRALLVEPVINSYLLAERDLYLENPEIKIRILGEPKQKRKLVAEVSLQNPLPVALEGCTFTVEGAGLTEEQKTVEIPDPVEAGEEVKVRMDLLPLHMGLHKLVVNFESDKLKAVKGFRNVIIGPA
Nature of the experiment: Kinetic inactivation of purified recombinant human TG2, continuous spectrophotometric activity assay (Examples 3, 10). Also noted: made in house. The experiment is classed as biochemical. As to the method:
Kinetic studies were carried out in vitro, using purified recombinant human TG2 (Roy, I. et al., Protein Expr. Purif. 87: 41-46, 2013) and a direct, continuous spectrophotometric activity assay (Leblanc, A. et al., Biochemistry 40: 8335-8342, 2001).
Kinetics. Kinetic runs were performed at 25° C. in 100 mM MOPS buffer (pH 7.0) containing 3 mM CaCl2 and 50 μM EDTA. […] Stock solutions of the substrate and inhibitors were prepared in DMF such that the final concentration of this co-solvent was constant at 10% v/v. Reactions were initiated with the addition of enzyme with an activity of approximately 0.05 U/mL. Kinetic evaluation was carried out by the method of Stone and Hofsteenge (Stone, S. R. and Hofsteenge, J., Biochem. J. 230: 497-502, 1985). […] Observed first-order rate constants of inactivation were determined from non-linear regression, to a mono-exponential model. These rate constants were in turn fit to equation 1 by non-linear regression, providing the kinetic parameters
Kinetic parameters were determined as described above.

Read-outs that look alike come from different tables or passages of the source.

The term kinact denotes the rate constant of inactivation at saturating inhibitor.

Regarding `C=CC(=O)NCCCC[C@H](NC(=O)OCc1ccccc1)C(=O)NCCOCCOCCNS(=O)(=O)c1cccc2c(N(C)C)cccc12` [NC9], in experiment [1], the “growth-retarding effect when TG2 expression is silenced” value is “completely lost”. Further, the EMT markers expression result in experiment [2] is listed as “reduction in EMT markers expression”.

Consider `C=CC(=O)NCCCC[C@H](NC(=O)OCc1ccccc1)C(=O)N1CCN(C(=O)c2cc3ccc(O)cc3oc2=O)CC1` [VA5, (S)-Benzyl(6-acrylamido-1-(4-(7-hydroxy-2-oxo-2H-chromene-3-carbonyl)piperazin-1-yl)-1-oxohexan-2-yl)carbamate], for which the kinact in experiment [3] (Table 4) is 0.0116 s⁻¹. In addition, the kinact/KI is 130000 M⁻¹ min⁻¹ in experiment [3] (read-out: kinact/KI (?M^−1min^−1), Table 1) and 165000 M⁻¹ min⁻¹ in experiment [3] (read-out: kinact/Ki (μM^−1 min^−1), Table 4, for ^a no saturation observed, efficiency obtained from initial slope).

(Values after patent publication US10894777B2, “TG2 inhibitor piperazine compounds and uses thereof” (UNIVERSITY OF OTTAWA, priority 2016, dated 2021).)
